The source of these data is patent US20250109139A1, “TRICYCLIC COMPOUND, AND PREPARATION METHOD THEREFOR AND USE THEREOF” (SHANGHAITECH UNIVERSITY, priority 2022, published 2025).

In data set [1] the target is T1, dopamine D2 receptors (Homo sapiens (Human), UniProt P14416). Nature of the data set: Dopamine D2 receptor Gαi1 BRET (G protein trimer dissociation). The class given is cell-based. The settings on record: for Emax: relative to endogenous ligand dopamine, read-out: Gαi1 BRET Emax % ± SEM. In outline: (§1)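 G-protein assay: cells co-transfected with D2 receptor, Gαi1-Rluc, Gβ3 and Gγ9-GFP (1 μg each); β-arrestin2 assay: D2-Rluc, GRK2 and GFP2-β-arrestin2 co-transfected. Cells were reseeded after one day and tested on day three. Drug dilution series were added in duplicate with coelenterazine 400a (5 μM final), and the BRET signal was read.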
T1 sequence (P14416 whole entry): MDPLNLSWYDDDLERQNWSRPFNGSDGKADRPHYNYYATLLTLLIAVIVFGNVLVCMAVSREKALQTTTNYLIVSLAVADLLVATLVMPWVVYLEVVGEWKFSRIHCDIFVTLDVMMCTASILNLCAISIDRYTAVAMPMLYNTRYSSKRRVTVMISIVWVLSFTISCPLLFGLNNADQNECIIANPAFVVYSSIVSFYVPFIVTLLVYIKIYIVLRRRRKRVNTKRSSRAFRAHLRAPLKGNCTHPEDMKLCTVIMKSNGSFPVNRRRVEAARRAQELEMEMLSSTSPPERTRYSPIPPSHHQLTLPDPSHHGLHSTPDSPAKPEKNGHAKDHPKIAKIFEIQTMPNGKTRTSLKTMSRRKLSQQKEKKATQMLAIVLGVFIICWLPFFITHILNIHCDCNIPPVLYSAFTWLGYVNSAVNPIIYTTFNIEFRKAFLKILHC

The target in data set [2] is T1, dopamine D2 receptors. Nature of the data set: Dopamine D2 receptor β-arrestin2 BRET (recruitment). The settings on record: for Emax: relative to endogenous ligand dopamine, read-out: β-arrestin2 BRET Emax % ± SEM. The class given is cell-based. In short, it runs like this:
as §1

Another data set concerns the target 5-HT2A receptors (Homo sapiens (Human), UniProt P28223). Nature of the data set: 5-HT2A receptor radioligand competition binding assay ([3H]-ketanserin). The settings on record: for Ki: read-out: Ki. Here is the method: The affinity of the compounds of the present disclosure for 5-HT2A receptors was determined by a radioligand competition binding assay. In the first step, a cell membrane component containing specific 5-HT2A receptor was prepared. A 10 cm dish was used for transfection with […] of 5-HT2A receptors and 40 μL of PEI. After 48 hours, the 10 cm dish was taken out from the cell incubator and the cultured cells had expressed the 5-HT2A receptors. A vacuum pump was used to suck off the culture medium, 3 mL of lysis buffer was added to each culture dish, and the cells were placed in a 4° C. cold room for 10 minutes. After the cells were detached, the cells were transferred to a 15 mL centrifuge tube and centrifuged at 1500 rpm for 5 minutes at 4° C., and the supernatant was discarded. The cell pellet was transferred to a tissue homogenizer, and 3 mL of lysis buffer was added and fully ground until the cells were broken. Then, cell suspension was equally aliquoted into several EP tubes, centrifuged at 12000 rpm for 5 minutes at 4° C., and the supernatant was discarded. The precipitate was the cell membrane component containing the 5-HT2A receptors. […] First, a standard binding buffer was added to the cell membrane component containing the 5-HT2A receptors, and the cell membrane was disrupted and resuspended with an electric tissue homogenizer. 30 μL of membrane protein suspension was added to each well of a 96-well plate. Then, 30 μL of different drugs were added to the 96-well plate sequentially from bottom to top to ensure that the final drug concentrations were 10^−5 M, 10^−6 M, 10^−7 M, 10^−8 M, 10^−9 M, and 0 M, with two replicates per treatment. Next, 30 μL of [^3H]-ketanserin was added to each well of the 96-well plate. The plate was incubated at room temperature in the dark for 2 hours. Detection was conducted. The machine readout value reflected the amount of [^3H]-ketanserin bound on the membrane, and after further data processing, the affinity Ki values of different compounds for the 5-HT2A receptors were obtained.

Data set [3] is described as follows: Brain permeability test, single intraperitoneal dose in C57 male mice. The settings on record: intraperitoneal 5 mg/kg; for concentration at 0.5 h / concentration at 2 h / Kp at 0.5 h / Kp at 2 h / Kp at 4 h / Kp / concentration at 4 h / AUC: male, C57, mouse; for Kp at 0.5 h / Kp at 2 h / Kp at 4 h / Kp: brain/plasma; for Kp at 0.5 h / Kp at 2 h / Kp at 4 h / Kp / AUC: ip; for Kp at 0.5 h: read-out: 0.5 h ratio (brain/plasma); for Kp at 2 h: read-out: 2.0 h ratio (brain/plasma); for Kp at 4 h: read-out: 4.0 h ratio (brain/plasma); for Kp: read-out: AUC ratio (brain/plasma). The class given is in vivo. Here is the method: Using the same method as that in the pharmacokinetic experiment, 0.030 mL of blood was collected from the orbit of each animal at 0.5 hours, 2.0 hours, and 4.0 hours, and anticoagulated with EDTA-K2. Blood samples were placed on ice after collection, and plasma was separated by centrifugation within 30 minutes (centrifugation conditions: 5000 rpm, 10 minutes, 4° C.). The collected plasma was stored at −80° C. before analysis. […] The homogenate was stored at −80° C. before analysis. Drug concentrations in plasma and brain tissues were analyzed by LC/MS/MS for comparison.

Setting [4] is: read-out: Gαi1 BRET pEC50 ± SEM (converted).
Where [5] appears, read: unit printed only in Cariprazine cell, read-out: Gαi1 BRET EC50.
Where [6] appears, read: unit printed only in Cariprazine cell, read-out: β-arrestin2 BRET EC50.
Where [7] appears, read: [3H]-ketanserin, 293T membranes.
Where [8] appears, read: brain, read-out: 0.5 h brain concentration.
Where [9] appears, read: plasma, read-out: 0.5 h plasma concentration.
[10] abbreviates: brain, read-out: 2.0 h brain concentration.
Where [11] appears, read: plasma, read-out: 2.0 h plasma concentration.
The mark [12] stands for this setting: read-out: β-arrestin2 BRET pEC50 ± SEM (converted).
[13] abbreviates: brain, read-out: 4.0 h brain concentration.
The mark [14] stands for this setting: plasma, read-out: 4.0 h plasma concentration.

Like-named read-outs stand apart in the source and are kept apart here.

Sequence of 5-HT2A receptors (P28223 whole entry): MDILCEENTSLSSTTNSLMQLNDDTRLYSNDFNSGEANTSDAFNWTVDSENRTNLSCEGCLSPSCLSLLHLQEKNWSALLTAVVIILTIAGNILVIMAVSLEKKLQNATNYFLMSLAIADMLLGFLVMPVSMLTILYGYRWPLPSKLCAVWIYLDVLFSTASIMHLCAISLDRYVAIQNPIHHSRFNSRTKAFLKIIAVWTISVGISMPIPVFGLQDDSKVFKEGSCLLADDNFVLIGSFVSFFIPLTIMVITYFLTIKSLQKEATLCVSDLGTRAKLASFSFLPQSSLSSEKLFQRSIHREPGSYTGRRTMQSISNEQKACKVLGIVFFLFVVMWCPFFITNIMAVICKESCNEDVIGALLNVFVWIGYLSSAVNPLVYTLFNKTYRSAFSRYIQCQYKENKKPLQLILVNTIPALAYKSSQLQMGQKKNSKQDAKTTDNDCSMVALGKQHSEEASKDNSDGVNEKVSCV

`COc1cccc2c3c(oc12)CN(CCCCOc1ccc2ccc(=O)[nH]c2c1)CC3` [I-A1, 7-(4-(8-methoxy-3,4-dihydrobenzofuro[2,3-c]pyridin-2(1H)-yl)butoxy)quinolin-2(1H)-one]: the EC50 is 23.4 nM on dopamine D2 receptors [1] (setting [4]), 48.8 nM at dopamine D2 receptors [1] (setting [5]) and 27.7 nM on dopamine D2 receptors [2] (setting [6]). Besides, the Emax on dopamine D2 receptors [1] stood at 55%. Besides, the “β-arrestin2 BRET pEC50 ± SEM” value on dopamine D2 receptors [2] is reported as “(7.62 ± 0.17)”. Also, the “affinity for 5-HT2A receptors (in words)” value at 5-HT2A receptors was “very weak affinity”. In addition, the “pKi ± SEM” value at 5-HT2A receptors (setting [7]) is “(5.74 ± 0.03)”. Moreover, the Ki on 5-HT2A receptors (setting [7]) was determined as 1790 nM. Moreover, the concentration at 0.5 h is 1110 ± 43 ng/mL in data set [3] (setting [8]) and 2220 ± 447 ng/mL in data set [3] (setting [9]). Besides, the concentration at 2 h was 236 ± 25 ng/mL in data set [3] (setting [10]) and 397 ± 26.3 ng/mL in data set [3] (setting [11]).

Regarding `COc1cccc2c3c(oc12)CN(CC[C@H]1CC[C@H](NC(=O)N(C)C)CC1)CC3` [I-A12, 3-(trans-4-(2-(8-methoxy-3,4-dihydrobenzofuro[2,3-c]pyridin-2(1H)-yl)ethyl)cyclohexyl)-1,1-dimethylurea], the values for the Emax at dopamine D2 receptors [1] and at dopamine D2 receptors [2] were 70% and 108%, respectively. For the same molecule, the EC50 at dopamine D2 receptors [1] (setting [5]) is 1.38 nM; on dopamine D2 receptors [2] (setting [12]) it was 8.13 nM; on dopamine D2 receptors [2] (setting [6]) it was 10.7 nM. Moreover, in data set [3], the Kp at 0.5 h amounted to 1.69. For the same molecule, the Kp at 2 h in data set [3] stood at 2.26. Moreover, the concentration at 0.5 h in data set [3] (setting [8]) stood at 1400 ± 220 ng/mL; in data set [3] (setting [9]), 830 ± 119 ng/mL. In addition, the results for the concentration at 2 h in data set [3] (setting [10]) and in data set [3] (setting [11]) were 455 ± 61 ng/mL and 202 ± 56.2 ng/mL, respectively.

For the molecule `COc1cccc2c3c([nH]c12)CN(CC[C@H]1CC[C@H](NC(=O)N(C)C)CC1)CC3` [I-B7, 3-(trans-4-(2-(8-methoxy-1,3,4,9-tetrahydro-2H-pyrido[3,4-b]indol-2-yl)ethyl)cyclohexyl)-1,1-dimethylurea], the EC50 is 11.2 nM at dopamine D2 receptors [1] (setting [4]), 17 nM on dopamine D2 receptors [1] (setting [5]), 0.107 nM on dopamine D2 receptors [2] (setting [12]) and 0.24 nM at dopamine D2 receptors [2] (setting [6]). In addition, the Emax at dopamine D2 receptors [1] came out at 21%; at dopamine D2 receptors [2], 44%. In addition, the “affinity for 5-HT2A receptors (in words)” value at 5-HT2A receptors was “very weak affinity”. Besides, at 5-HT2A receptors (setting [7]), the Ki came to 3510 nM. Moreover, the Kp at 0.5 h in data set [3] was determined as 0.656. Besides, the Kp at 2 h in data set [3] was found to be 0.643. For the same molecule, the concentration at 0.5 h turned out to be 392 ± 15 ng/mL in data set [3] (setting [8]) and 598 ± 19 ng/mL in data set [3] (setting [9]). Moreover, the values for the concentration at 2 h in data set [3] (setting [10]) and in data set [3] (setting [11]) were 73 ± 129 ng/mL and 114 ± 67.9 ng/mL, respectively.

For the molecule `COc1cccc2c1cc1n2CCN(CCCCOc2ccc3ccc(=O)[nH]c3c2)C1` [I-C1, 7-(4-(9-methoxy-3,4-dihydropyrazino[1,2-a]indol-2(1H)-yl)butoxy)quinolin-2(1H)-one], the EC50 is 6.31 nM at dopamine D2 receptors [1] (setting [4]), 7.94 nM at dopamine D2 receptors [1] (setting [5]) and 220 nM on dopamine D2 receptors [2] (setting [6]). The values for the Emax at dopamine D2 receptors [1] and on dopamine D2 receptors [2] were 72% and 117%, respectively. In addition, in data set [3] (brain), the AUC brain is 3385 ng·h/mL. The Kp at 0.5 h in data set [3] amounted to 0.478. Also, in data set [3], the Kp at 2 h stood at 0.663. Besides, in data set [3], the Kp at 4 h came to 0.541. The Kp in data set [3] amounted to 0.538. Moreover, the concentration at 0.5 h in data set [3] (setting [8]) is 1940 ± 63 ng/mL; in data set [3] (setting [9]) it was 4060 ± 367 ng/mL. The concentration at 2 h in data set [3] (setting [10]) is 732 ± 56 ng/mL; in data set [3] (setting [11]), 1100 ± 89 ng/mL. For the same molecule, the results for the concentration at 4 h in data set [3] (setting [13]) and in data set [3] (setting [14]) were 161 ± 55 ng/mL and 297 ± 106 ng/mL, respectively. The AUC in data set [3] (plasma) was found to be 6290 ng·h/mL.

Consider `COc1cccc2c1cc1n2CCN(CCCCOc2ccc3c(c2)NC(=O)CC3)C1` [I-C2, 7-(4-(9-methoxy-3,4-dihydropyrazino[1,2-a]indol-2(1H)-yl)butoxy)-3,4-dihydroquinolin-2(1H)-one], for which the EC50 on dopamine D2 receptors [1] (setting [4]) is 44.7 nM; on dopamine D2 receptors [1] (setting [5]), 46.3 nM; on dopamine D2 receptors [2] (setting [12]) it was 66.1 nM; at dopamine D2 receptors [2] (setting [6]), 122 nM. The Emax on dopamine D2 receptors [1] was determined as 81%; at dopamine D2 receptors [2], 115%. Further, the AUC brain in data set [3] (brain) was determined as 5561 ng·h/mL. The Kp at 0.5 h in data set [3] turned out to be 0.855. Moreover, the Kp at 2 h in data set [3] is 0.834. In data set [3], the Kp at 4 h is 0.931. For the same molecule, the Kp in data set [3] is 0.853. Also, the concentration at 0.5 h in data set [3] (setting [8]) turned out to be 2800 ± 208 ng/mL; in data set [3] (setting [9]) it was 3280 ± 456 ng/mL. The concentration at 2 h came to 1260 ± 279 ng/mL in data set [3] (setting [10]) and 1510 ± 545 ng/mL in data set [3] (setting [11]). Further, the concentration at 4 h in data set [3] (setting [13]) came out at 599 ± 54 ng/mL; in data set [3] (setting [14]) it was 558 ± 100 ng/mL. Also, in data set [3] (plasma), the AUC was found to be 6520 ng·h/mL.
